Test results reported in US20070249607A1, “NK-1 AND SEROTONIN TRANSPORTER INHIBITORS” (Bristol-Myers Squibb Company, priority 2006, published 2007).
Where two headings read alike, the source gives them in different places.

Columns and labels:
[1] = biological target: T1, neurokinin-1 (NK-1) receptor (Homo sapiens, UniProt P25103); assay: NK-1 Binding assay ([125I] Substance P competition, U373 cell membranes)
T1 construct: a human glioblastoma-astrocytoma cell line that endogenously expresses the neurokinin-1 (NK-1) receptor; endogenous in cells; host or cells: U373 human glioblastoma-astrocytoma cells (membranes)
T1 sequence (P25103 whole entry): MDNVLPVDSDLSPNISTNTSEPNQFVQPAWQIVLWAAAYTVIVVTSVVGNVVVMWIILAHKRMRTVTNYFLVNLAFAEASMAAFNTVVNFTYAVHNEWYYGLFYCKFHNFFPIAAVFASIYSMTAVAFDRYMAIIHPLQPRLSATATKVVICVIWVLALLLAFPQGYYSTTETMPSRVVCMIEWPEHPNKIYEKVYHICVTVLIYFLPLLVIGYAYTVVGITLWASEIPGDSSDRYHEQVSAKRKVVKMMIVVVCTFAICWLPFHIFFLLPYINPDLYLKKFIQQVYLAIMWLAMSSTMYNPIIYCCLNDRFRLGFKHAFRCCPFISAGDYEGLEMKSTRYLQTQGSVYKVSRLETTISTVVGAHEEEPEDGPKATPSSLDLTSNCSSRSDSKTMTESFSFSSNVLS
Experimental: NK-1 Binding assay. U373 cells, a human glioblastoma-astrocytoma cell line that endogenously expresses the neurokinin-1 (NK-1) receptor, were grown in a monolayer culture at 37° C. in 5% CO2 and fed with Minimum Essential Medium (MEM) supplemented with 10% fetal bovine serum. Membranes were prepared as follows: Cells were washed twice with ice-cold phosphate-buffered saline (pH 7.4) and then incubated for 5-10 minutes with ice-cold 10 mM Tris buffer (pH 7.4) containing 5 mM EDTA. Cells were removed from plates, homogenized, and centrifuged at 32,000×g for 20 minutes. The resulting supernatant was discarded, and the pellet resuspended by homogenization in 50 mM Tris buffer (pH 7.4) containing 1 mM EDTA and centrifuged at 32,000×g for 20 minutes. The resulting supernatant was discarded, and the pellet resuspended by homogenization in NK-1 binding assay buffer (50 mM Tris-HCL (pH 7.4), 3 mM MnCl2, 200 μg/ml BSA, 5 μg/ml chymostatin, 40 μg/ml bacitracin and 4 μg/ml leupeptin).
On the day of an experiment the membrane preparation was thawed, homogenized and diluted with NK-1 binding assay buffer to the appropriate concentration. […] Substance P, at a concentration of […], and concentrations of drugs ranging from 10000 to 0.01 nM. Samples were incubated for 30 min at 20° C. then filtered through GF/B glass fiber filters (pretreated with 1% polyethyleneimine and 0.3% Triton X-100) using a Brandel cell harvester. The filters were then washed with 10 ml ice cold 50 mM Tris-HCL (pH 7.4) containing 3 mM MgCl2. […] The amount of radioligand bound in the presence and absence of competitor was analyzed by plotting (-)log drug concentration versus the amount of radioligand specifically bound. The midpoint of the displacement curve (IC50, nM), signifies the potency.

[2] = biological target: T2, human serotonin transporters (Homo sapiens, UniProt P31645); assay: Serotonin transporter binding assay ([3H]-citalopram competition, HEK-hSERT cell membranes); settings: HEK-hSERT membranes, [3H]-citalopram displacement, read-out: SERT IC50
T2 construct: expressed in transfected cells
T2 sequence (P31645 whole entry): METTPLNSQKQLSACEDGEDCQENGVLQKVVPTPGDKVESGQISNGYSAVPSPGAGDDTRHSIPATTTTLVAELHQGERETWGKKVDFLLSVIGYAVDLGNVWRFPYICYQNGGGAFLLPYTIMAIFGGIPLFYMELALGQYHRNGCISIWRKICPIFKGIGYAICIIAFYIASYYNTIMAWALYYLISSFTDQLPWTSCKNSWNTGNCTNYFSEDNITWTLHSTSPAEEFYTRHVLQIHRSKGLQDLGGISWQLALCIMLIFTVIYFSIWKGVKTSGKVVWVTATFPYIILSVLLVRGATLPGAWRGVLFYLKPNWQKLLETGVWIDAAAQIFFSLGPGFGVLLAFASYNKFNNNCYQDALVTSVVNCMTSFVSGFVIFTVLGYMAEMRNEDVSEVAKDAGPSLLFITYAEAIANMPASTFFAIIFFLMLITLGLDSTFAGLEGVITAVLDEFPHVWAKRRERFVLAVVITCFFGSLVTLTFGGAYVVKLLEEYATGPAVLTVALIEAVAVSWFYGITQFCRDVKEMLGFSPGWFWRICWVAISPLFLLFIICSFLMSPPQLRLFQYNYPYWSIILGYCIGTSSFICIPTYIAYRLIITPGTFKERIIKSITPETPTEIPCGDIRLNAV
Experimental: Serotonin transporter binding assay. HEK-293 cells that stably express human serotonin transporters (HEK-hSERT cells) were grown at 37° C. in 5% CO2 as a monolayer in medium consisting of EMEM supplemented with 10% fetal bovine serum and G418 sulfate (500 μg/ml). To prepare membranes for radioligand binding experiments, cells were rinsed twice with phosphate-buffered saline (138 mM NaCl, 4.1 mM KCl, 5.1 mM Na2PO4, 1.5 mM KH2PO4, 11.1 mM glucose, pH 7.4). Cells were transferred from plates to polypropylene tubes (16×100 mm), centrifuged at 1,200×g for 5 min and were frozen at −80° C. until assay. Following centrifugation, pellets were resuspended by homogenization in buffer consisting of 50 mM Tris (pH 7.7 at 25° C.), 120 mM NaCl and 5 mM KCl and then centrifuged at 32,000×g for 10 min. Following centrifugation, supernatants were discarded and pellets were resuspended in buffer consisting of 50 mM Tris (pH 7.4 at 25° C.), 150 mM NaCl and 5 mM KCl. Membrane homogenates (200 μl/plate) were incubated with 1 nM [^3H]-citalopram (specific activity=85 Ci/mmol) and increasing concentrations of test compounds for 1 hr at 25° C. in a total volume of 250 μl. The assay buffer consisted of 50 mM Tris (pH 7.4 at 25° C.), 120 mM NaCl and 5 mM KCl (pH 7.4 with conc. HCl). Plates were incubated for 1 hr at 25° C., then filtered through 0.5% PEI treated Whatman GF/B filters using a Brandel cell harvester. Filters were washed three times with 3 ml of ice-cold tris wash buffer. Non-specific binding was defined with 10 μM fluoxetine. Amount of radioligand bound in the presence and absence of competitor was analyzed by plotting (-)log drug concentration versus the amount of radioligand specifically bound. The midpoint of the displacement curve (IC50, nM), signifies the potency. Ki values can be calculated using the method of Cheng and Prusoff (Cheng and Prusoff, BiochemicalPharmacology, Vol 22, pp. 3099-3108, Pergamon Press (1973)).

[3] = Table 1, U373 membranes, [125I] Substance P displacement, read-out: NK-1 IC50

| Compound | IC50 [1, 3] [nM] | IC50 ([2]; Table 1) [nM] | IC50 [1] [nM] | IC50 ([2]; Table 2) [nM] |
| --- | --- | --- | --- | --- |
| FC(F)(F)c1cc(COCC2(c3ccccc3)CCNCC2)cc(-c2ccncc2Cl)c1 | 0.01 to 100 | 0.01 to 100 |  |  |
| CCOc1ccc(-c2cc(COCC3(c4ccccc4)CCNCC3)cc(C(F)(F)F)c2)cc1 | 0.01 to 100 | 0.01 to 100 |  |  |
| FC(F)(F)c1cccc(-c2cc(COCC3(c4ccccc4)CCNCC3)cc(C(F)(F)F)c2)c1 | 0.01 to 100 | 0.01 to 100 |  |  |
| COc1ccccc1-c1cc(COCC2(c3ccccc3)CCNCC2)cc(C(F)(F)F)c1 | 0.01 to 100 | 0.01 to 100 |  |  |
| FC(F)(F)c1cc(COCC2(c3ccccc3)CCNCC2)cc(-c2cccc3c2oc2ccccc23)c1 | > 300 | 0.01 to 100 |  |  |
| FC(F)(F)c1cc(COCC2(c3ccccc3)CCNCC2)cc(-c2ccccc2Cl)c1 | 0.01 to 100 | 0.01 to 100 |  |  |
| COc1ccc(-c2cc(COCC3(c4ccccc4)CCNCC3)cc(C(F)(F)F)c2)cc1F | 0.01 to 100 | 0.01 to 100 |  |  |
| CCCCCc1ccc(-c2cc(COCC3(c4ccccc4)CCNCC3)cc(C(F)(F)F)c2)cc1 | 0.01 to 100 | 100 to 300 |  |  |
| FC(F)(F)c1cc(COCC2(c3ccccc3)CCNCC2)cc(-c2ccccc2Oc2ccccc2)c1 | > 300 | 100 to 300 |  |  |
| Cc1cccc(C)c1-c1cc(COCC2(c3ccccc3)CCNCC2)cc(C(F)(F)F)c1 | 100 to 300 | 100 to 300 |  |  |
| CC(C)(C)c1ccc(-c2cc(COCC3(c4ccccc4)CCNCC3)cc(C(F)(F)F)c2)cc1 | > 300 | > 300 |  |  |
| Oc1cccc(-c2cc(COCC3(c4ccccc4)CCNCC3)cc(C(F)(F)F)c2)c1 | 0.01 to 100 | 0.01 to 100 |  |  |
| Oc1ccc(-c2cc(COCC3(c4ccccc4)CCNCC3)cc(C(F)(F)F)c2)cc1 | 0.01 to 100 | 0.01 to 100 |  |  |
| OCc1ccccc1-c1cc(COCC2(c3ccccc3)CCNCC2)cc(C(F)(F)F)c1 | 100 to 300 | 0.01 to 100 |  |  |
| Fc1cc(-c2cc(COCC3(c4ccccc4)CCNCC3)cc(C(F)(F)F)c2)ccc1-c1ccccc1 | > 300 | 0.01 to 100 |  |  |
| FC(F)(F)c1cc(COCC2(c3ccccc3)CCNCC2)cc(-c2cccc3cccnc23)c1 | 100 to 300 | 0.01 to 100 |  |  |
| FC(F)(F)c1cc(COCC2(c3ccccc3)CCNCC2)cc(-c2cccc(-c3ccccc3)c2)c1 | 100 to 300 | 100 to 300 |  |  |
| Fc1cc(F)cc(-c2cc(COCC3(c4ccccc4)CCNCC3)cc(C(F)(F)F)c2)c1 | 0.01 to 100 | 0.01 to 100 |  |  |
| CC(C)N1CCC(COCc2cc(-c3ccc(C#N)cc3)cc(C(F)(F)F)c2)(c2ccccc2)CC1 |  |  | 0.01 to 100 | > 300 |

Continued, in another order:

| IC50 [1, 3] [nM] | IC50 ([2]; Table 1) [nM] | Compound | IC50 [1] [nM] | IC50 ([2]; Table 2) [nM] |
| --- | --- | --- | --- | --- |
| 0.01 to 100 | 0.01 to 100 | Cc1cnccc1-c1cc(COCC2(c3ccccc3)CCNCC2)cc(C(F)(F)F)c1 |  |  |
| 0.01 to 100 | 0.01 to 100 | Cc1cc(-c2cc(COCC3(c4ccccc4)CCNCC3)cc(C(F)(F)F)c2)ccn1 |  |  |
| 0.01 to 100 | 0.01 to 100 | Fc1cccc(F)c1-c1cc(COCC2(c3ccccc3)CCNCC2)cc(C(F)(F)F)c1 |  |  |
| 0.01 to 100 | 0.01 to 100 | Fc1ccc(-c2cc(COCC3(c4ccccc4)CCNCC3)cc(C(F)(F)F)c2)cc1F |  |  |
| 0.01 to 100 | 0.01 to 100 | FC(F)(F)c1cc(COCC2(c3ccccc3)CCNCC2)cc(-c2ccc3c(c2)OCO3)c1 |  |  |
| 0.01 to 100 | 0.01 to 100 | COc1ccc(-c2cc(COCC3(c4ccccc4)CCNCC3)cc(C(F)(F)F)c2)c(OC)c1 |  |  |
| 0.01 to 100 | 0.01 to 100 | FC(F)(F)c1cc(COCC2(c3ccccc3)CCNCC2)cc(-c2ccc(Cl)c(Cl)c2)c1 |  |  |
| 0.01 to 100 | 0.01 to 100 | FC(F)(F)Oc1ccc(-c2cc(COCC3(c4ccccc4)CCNCC3)cc(C(F)(F)F)c2)cc1 |  |  |
| 100 to 300 | 0.01 to 100 | CC(=O)c1ccc(-c2cc(COCC3(c4ccccc4)CCNCC3)cc(C(F)(F)F)c2)cc1 |  |  |
| 100 to 300 | 100 to 300 | COc1c(C)cc(-c2cc(COCC3(c4ccccc4)CCNCC3)cc(C(F)(F)F)c2)cc1C |  |  |
| 100 to 300 | 0.01 to 100 | OCc1cccc(-c2cc(COCC3(c4ccccc4)CCNCC3)cc(C(F)(F)F)c2)c1 |  |  |
